Ki and IC50 data for 21 compounds are collected here from ChEMBL document CHEMBL3580570, “Discovery and SAR study of a sulfonamide hydroxamic acid inhibitor for the botulinum neurotoxin serotype A light chain” (Medchemcomm, 2014).

Bounds are passed on as bounds.

The target in the assay is Botulinum neurotoxin type A (Clostridium botulinum, UniProt P0DPI0). Kind of assay: Competitive inhibition of Clostridium botulinum BoNT/A LC using SNAPtide as substrate after 10 mins by FRET assay.
Sequence of Botulinum neurotoxin type A (P0DPI0 2-448 limits assumed): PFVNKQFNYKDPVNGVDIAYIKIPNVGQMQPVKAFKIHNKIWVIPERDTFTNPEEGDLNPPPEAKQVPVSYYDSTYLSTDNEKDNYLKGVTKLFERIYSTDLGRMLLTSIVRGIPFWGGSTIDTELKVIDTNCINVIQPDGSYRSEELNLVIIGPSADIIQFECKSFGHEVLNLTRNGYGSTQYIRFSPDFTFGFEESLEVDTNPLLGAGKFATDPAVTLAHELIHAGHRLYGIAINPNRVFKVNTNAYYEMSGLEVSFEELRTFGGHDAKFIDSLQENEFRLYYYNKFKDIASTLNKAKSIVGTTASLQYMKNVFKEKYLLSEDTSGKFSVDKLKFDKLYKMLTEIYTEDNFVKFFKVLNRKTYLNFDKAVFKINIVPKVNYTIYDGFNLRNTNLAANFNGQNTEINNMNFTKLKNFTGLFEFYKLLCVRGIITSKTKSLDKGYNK

Regarding `O=C(NO)[C@@H]1C[C@@H](Oc2ccc(Cl)cc2)CN1S(=O)(=O)c1ccc(Cl)cc1`, the Ki (as a rule, the equilibrium dissociation constant of an inhibitor or competing ligand from its target) came to 6.3 µM.

`CC[C@H](C)[C@H](NS(=O)(=O)c1ccc(-c2ccc(F)cc2)cc1)C(=O)NO`: the concentration for half-maximal inhibition (IC50) – broadly, the concentration that inhibits the measured activity by half – turned out to be 9.6 µM.

Take `CC[C@H](C)[C@H](NS(=O)(=O)c1ccc(-c2ccc(NC(C)=O)cc2)cc1)C(=O)NO`: the IC50 is more than 100 µM.

Take `CC[C@H](C)[C@H](NS(=O)(=O)c1ccc(-c2ccc(OC)cc2)cc1)C(=O)NO`: the 50% inhibitory concentration (IC50) was more than 100 µM.

In the case of `CC[C@H](C)[C@H](NS(=O)(=O)c1ccc(-c2ccccc2)cc1)C(=O)NO`, the IC50 stood at 27.7 µM.

`CC[C@H](C)[C@H](NS(=O)(=O)c1cccc(-c2ccc(Cl)cc2)c1)C(=O)NO` had an IC50 of 8.14 µM.

As for `CC[C@H](C)[C@H](NS(=O)(=O)c1ccc2c(c1)OCCO2)C(=O)NO`, the IC50 was found to be 20.7 µM.

`CC[C@H](C)[C@H](NS(=O)(=O)c1ccccc1)C(=O)NO` had a concentration for half-maximal inhibition (IC50) of more than 100 µM.

With `CC[C@H](C)[C@@H](NS(=O)(=O)c1ccc(-c2ccc(Cl)cc2)cc1)C(=O)NO`, the half-inhibitory concentration (IC50) was determined as 11.8 µM.

`CC[C@@H](C)[C@H](NS(=O)(=O)c1ccc(-c2ccc(Cl)cc2)cc1)C(=O)NO`: the IC50 came to 41.8 µM.

On to `CC[C@@H](C)[C@@H](NS(=O)(=O)c1ccc(-c2ccc(Cl)cc2)cc1)C(=O)NO`, for which the IC50 is 6.91 µM.

In turn, `CC(C)C[C@@H](NS(=O)(=O)c1ccc(-c2ccc(Cl)cc2)cc1)C(=O)NO` returned a concentration for half-maximal inhibition (IC50) of 25.9 µM.

Take `CC(C)C[C@H](NS(=O)(=O)c1ccc(-c2ccc(Cl)cc2)cc1)C(=O)NO`: the IC50 is 24.8 µM. The IC50 values of the last two compounds are within 1.5-fold of each other.

In the case of `CC(C)[C@H](NS(=O)(=O)c1ccc(-c2ccc(Cl)cc2)cc1)C(=O)NO`, the half-inhibitory concentration (IC50) was 38.2 µM.

With `O=C(NO)[C@H](Cc1ccccc1)NS(=O)(=O)c1ccc(-c2ccc(Cl)cc2)cc1`, the 50% inhibitory concentration (IC50) was more than 100 µM.

In turn, `O=C(NO)[C@@H]1CCCN1S(=O)(=O)c1ccc(-c2ccc(Cl)cc2)cc1` returned a half-maximal inhibitory concentration (IC50) of more than 100 µM.

For the compound `CC[C@H](C)[C@H](NS(=O)(=O)c1ccc(-c2ccc(Cl)cc2)cc1)C(=O)O`, the IC50 was more than 100 µM.

On to `CC[C@H](C)[C@H](NS(=O)(=O)c1ccc(-c2ccc(Cl)cc2)cc1)C(N)=O`, for which the IC50 was more than 100 µM.

The compound `CC[C@H](C)[C@H](NS(=O)(=O)c1ccc(-c2ccc(Cl)cc2)cc1)C(=O)NO` showed a 50% inhibitory concentration (IC50) of 10.1 µM.

For `CC[C@H](C)[C@H](NS(=O)(=O)c1ccc(-c2ccc(C)cc2)cc1)C(=O)NO`, the half-inhibitory concentration (IC50) was more than 100 µM.

As to `CC[C@@H](C)[C@@H](NS(=O)(=O)c1cccc(-c2ccc(Cl)cc2)c1)C(=O)NO`, the IC50 worked out at 0.95 µM. In other words, the sub-micromolar range.
